Reference: patent publication US8389468B2, “Approach to the treatment of compartment syndrome” (Lantmannen AS-Faktor AB, priority 2006, dated 2013)
“Also recorded” adds a separate entry of the source.

Experiments:
Format in all cases: in vivo, rat
[1] = system: HSV-1 infected rats; test: Survival of rats infected with HSV-1; settings: 10 pg or 25 pg AF-16 intranasally twice daily
Protocol: FIG. 3: Survival frequency of rats infected with HSV-1 by the administration of a virus solution in the right nostril on day 0. Half of the rats (n=15) were treated twice daily with 1 μg AF-16 (upper line), a peptide composed of the amino acids VCHSKTRSNPENNVGL (SEQ ID NO: 1), twice daily intranasally, while the other half received just the vehicle after the HSV-1 infection (lower line). Of those treated with just the vehicle only 10% survived day 14, contrasting to the 60% of those treated with AF-16.
Therefore, rats were infected by instillation in their right nostril of 25 μL of a solution of the herpes simplex virus type 1 (HSV-1; strain 2762, batch 041028; 1.7×10^7 PFU/mL). Half of the animals received 10 min later 25 μL (1, 10 or 25 pg) of AF-16 in their right nostril, and had thereafter the same dose of AF-16 instilled every morning at 8 AM and every night at 6 PM until the experiment was terminated on day 14. The other half of the group of HSV-1 infected rats received 25 μL of the vehicle, PBS, at the same time schedule. The animals were several times daily closely watched for signs of behavioral dysfunction or general sickness. If so, the animals were sacrificed. The FIG. 3 is illustrating the survival rates for the animals, all being infected with HSV-1. […]

[2] = system: HSV-1 infected rats; test: Outflow of CSF through cribriform lamina, Evans blue-albumin (EBA) infusion in HSV-1 infected rats; settings: 10 or 25 pg intranasally
Excerpt: FIG. 6: Sections through the cribriform lamina, a bone structure separating the brain from the nose and through which the olfactory nerve pass. In the left figure (a) the dye-protein complex Evans blue-albumin (EBA) was infused into the subarachnoid space at day 5 after HSV-1 infection. The animal suffered from moderate encephalitis. Note that there is no red EBA in the cribriform lamina, nor in the nose, as the passage between the brain and nasal cavity is blocked. In the right figure (b) EBA was infused into the subarachnoid space of a non-infected, normal rat.
Additional HSV-1 infected animals with distinctly overt symptoms were as well treated with 10 or 25 pg AF-16 intranasally, starting on day 5, 6 or 7, i.e. after having had the vehicle during the previous days. […] Thus, non of the acutely AF-16 treated rats had any persistent signs of deleterious ICP and thus no CS developed. […] That is seen in the mentioned figure (FIG. 5 a) as there is no red staining of the right half on the figure. However, treatment with 10 or 25 pg AF-16 intranasally turned the picture in HSV-1 infected rats as in the normal, non-infected ones. […] Thereby the outflow of CSF was restored and the ICP turned normal.

[3] = system: HSV-1; test: PCR of HSV-1 DNA copies in brain tissue, rats; settings: 1 or 10 pg intranasally twice daily
Excerpt: FIG. 5: Quantitative PCR performed on brain tissues from rats infected in their right nostril with HSV-1. The brain specimens were obtained between 5 to 14 days after virus inoculation in the right nostril.
The improved survival of the HSV-1 infected rodents, as illustrated in example #2, could tentatively be due to that AF-16 blocked or at least reduced the proliferation of HSV1 virus in the infected brain. Therefore, adult rats were infected by having a solution of the herpes simplex virus type 1 (HSV-1; strain 2762, batch 041028; 1.7×10^7 PFU/mL) instilled in their right nostril. Half of the infected animals received 10 min later 25 pL (1 or 10 pg) of AF-16 in their right nostril, and had thereafter the same dose of AF-16 instilled every morning at 8 AM and every night at 6 PM until the experiment was terminated on day 6. The other groups of the HSV-1 infected rats received at the same time intervals 25 μL of the vehicle, PBS. The animals were closely watched for signs of general sickness and of behavioral and motor dysfunction. The animals were sacrificed by an overdose of anesthetics on day 6, the skull was then rapidly opened and the brain removed. […]

[4] = system: flotillin-1 and aquaporin 1 immunoreactivities in the choroid plexus; test: Immunohistochemistry of flotillin-1 and aquaporin 1 in choroid plexus of HSV-1 infected rats; settings: hardly demonstrable with vehicle
Protocol: Therefore, rats were infected by instillation in their right nostril of 25 μL of a solution of the herpes simplex virus type 1 (HSV-1; strain 2762, batch 041028; 1.7×10^7 PFU/mL). Half of the animals received 10 min later 25 μL (1, 10 or 25 pg) of AF-16 in their right nostril, and had thereafter the same dose of AF-16 instilled every morning at 8 AM and every night at 6 PM until the experiment was terminated on day 14. The other half of the group of HSV-1 infected rats received 25 μL of the vehicle, PBS, at the same time schedule. The animals were several times daily closely watched for signs of behavioral dysfunction or general sickness. If so, the animals were sacrificed. The FIG. 3 is illustrating the survival rates for the animals, all being infected with HSV-1. […] In contrast, the HSV-1 infected rats, receiving just the vehicle (n=15), died to a large extent and only 10% were still surviving at the end of the test period, day 14 (FIG. 3). All of the vehicle treated, infected rats developed signs of neurological dysfunctions. […] It ought to be stressed that the extent and severity of the damage were depending on the duration of the exposure and to the level of elevated ICP as well as to the survival time. […]

[5] = system: sciatic nerve; test: Sciatic nerve crush, intraneural pressure
Excerpt: Peripheral and autonomic nerves are all delimited by an endoneurium, an perineurium and outermost an epineurium. Multiple nerve fascicles form a nerve (Cf. Hansson et al., 1987). Tendons and some of the ligaments in a body are delimited by a tender collagen membrane-like structure, the synovial sheath. The inner border layer of the latter connect the tendon with its synovial vagina, which enable sliding at minimal friction. The periphery of the latter structure is enclosed by a fibrous, membrane-like layer, the fibrous vagina. The enclosing paratendinium is in some locations hold in position and receiving nutrition by mesotendons and by vinculae (Cf. Hansson et al., 1980). […] Such a procedure resulted not only in impaired nerve function and structure but also in impaired blood and lymph circulation, and caused swelling of the sciatic nerve, the development of oedema, which included adjacent and enveloping structures, The IFP turned elevated, as assessed by the insertion of a Samba fibre optic pressure measuring probe in the affected tissue. […] The pressure in the perineurium was determined to become elevated in a day in those treated with just the vehicle, in agreement with the macroscopically recognized swelling and local oedema, i.e. having developed a CS. […]

Sequence: VCHSKTRSNPENNVGL [AF-16]
- signs of neurological dysfunction [1]: none showed any signs of neurological dysfunction
- survival at day 14 [1]: all the infected animals survived
- outflow of CSF to nasal mucosa (EBA staining of cribriform lamina) [2]: opened the passage for the CSF through the cribriform plate; also recorded: reversed the block of the outflow of CSF
- HSV-1 DNA copies in brain tissue vs vehicle [3]: no significant difference with regard to prevalence and distribution of HSV-1 DNA copies; also recorded: does not significantly affect the HSV-1 production
- aquaporin 1 immunoreactivity in the choroid plexus [4]: readily demonstrable
- flotillin-1 immunoreactivity in the choroid plexus [4]: readily demonstrable
- intraneural pressure ([5]; crushed sciatic nerve, high dose from time of injury): slightly elevated or close to that measured in a normal nerve
- inflammation, oedema and tissue distortion (light microscopy) ([5]; injured sciatic nerves): reduced the inflammation and the oedema and the tissue distortion
